Consider one substance from patent US20120225123A1, “Use of Synergistic Combinations of an Avermectin and an Antineoplastic Compounds for the Treatment of Hematological Malignancies” (UNIVERSITY HEALTH NETWORK, priority 2009, published 2012).

The subject of series [1] is primary normal hematopoietic cells (PBSC). Briefly: Cell viability by Annexin V and PI staining, normal hematopoietic cells. The format is cell-based, human. Conditions: 48 hours, concentrations up to 20 μM. The procedure:
Primary human acute myeloid leukemia (AML) samples were isolated from fresh bone marrow and peripheral blood samples of consenting patients. Similarly, primary normal hematopoietic cells were obtained from healthy consenting volunteers donating peripheral blood mononuclear cells
(PBSCs) for stem cell transplantation. The mononuclear cells were isolated from the samples by Ficoll density centrifugation. Primary cells were cultured at 37° C. in IMDM supplemented with 20% FCS and appropriate antibiotics.
(§1) Cell growth and viability was assessed by the MTS assay (Promega, Madison, Wis.) according to the manufacturer's instructions and as previously described.^12 Cell death was measured by Annexin V-fluoroscein isothiocyanate (FITC) and Propidium Iodide (PI; Biovision Research Products, Mountain View, Calif.) staining and flow cytometry according to the manufacturer's instructions and as previously described.^13 To identify CD34+ cells, a normal PBSC sample was co-stained with PE-anti-CD34+ (Beckman Coulter, Marseille France), and APC-anti-CD45 (Becton Dickenson, San Jose Calif.).
Given the cytotoxicity of IVM toward leukemia cell lines, its cytotoxicity was compared to primary normal hematopoietic cells and acute myeloid leukemia (AML) patient samples (n=4 intermediate risk cytogenetics, n=1 good risk cytogenetics, and n=1 unknown cytogenetics). […]

The test system of another series is monkeys. To be noted: oral; cited from earlier work.
In series [2] the test system is panel of 5 leukemia cell lines. Kind of series: Cell growth and viability by MTS assay in a panel of leukemia cell lines. The format is cell-based. To be noted: 72 hours, read-out: EC50, decreased viability. The procedure: as §1
Having identified IVM in the chemical screens, the effects of IVM on cell growth and viability was tested in a panel of leukemia, cell lines. The effects of ivermectin on cell growth and viability in a panel of 5 leukemia cell lines were tested. Cells were treated with increasing concentrations of ivermectin and 72 hours after incubation, cell growth and viability were assessed by the MTS assay. Ivermectin decreased the viability of the tested leukemia cell lines with an EC50 of approximately 5 μM (FIG. 1B). The loss of viability was detected at 24 hours after treatment and increased in a time dependent manner. Cell death and apoptosis were confirmed by Annexin V and PI staining (FIG. 1C). […] (FIG. 1F).
On the technique in general: Tetrazolium dyes change colour on reduction, which living cells bring about.

Series [3] concerns STAT1 expression in DU145 and PPC-1 cells. Kind of series: Gene expression by Q-RT-PCR, DU145 and PPC-1. The format is cell-based, human. The procedure:
(§2) Gene expression changes were evaluated in OCI AML2, 0937, HL60, DU145 and PPC-1 cells by real-time Q-RT-PCRas described previously^15, 47. The expression level of STAT1A, STAT1B, TRIM22, OAS1 and IFIT3 before and after incubation of leukemia cells with ivermectin was evaluated.

Series [4] relates to DU145 and PPC-1 cells as well as primary normal hematopoietic cells. Briefly: Plasma membrane potential, DiBAC4(3) staining, resistant cells. The format is cell-based, human. To be noted: up to 6 μM for up to 24 hours. How it is done:
Plasma membrane potential was measured as previously described.^18 Briefly, cells treated with IVM or buffer control in RPM1, chloride replete medium (140 mM sodium chloride, 5 mM potassium chloride, 1 mM magnesium sulfate, 1.8 mM calcium acetate, 10 mM glucose, 10 mM HEPES and 0.1% (wt/v) BSA), or chloride free media where equimolar gluconate salts of sodium and potassium replaced the sodium chloride in the chloride replete medium. After incubation, cells were stained with DiBAC4(3) (final concentration 30 nM) and fluorescence determined by flow cytometry (BD FACS Canto, Becton Dickinson, San Jose, Calif.) (excitation=488 nm, emission=516 nm) Analysis was conducted using FACSDiva Software (BD Biosciences). Calibration curves were prepared using phosphate buffers with varying potassium ion concentrations as previously described.^18
In nematodes, increases in intracellular chloride after IVM treatment cause membrane hyperpolarization. Therefore, the effects of IVM on plasma and mitochondrial membrane polarization was evaluated in leukemia cells. […] At increasing times after incubation, plasma membrane potential was measured by staining cells with DiBAC4(3) and flow cytometric analysis.

The subject of another series is OCI-AML2 cells. Kind of series: Cytosolic calcium, Indo-1 AM staining. The format is cell-based, human. How it is done:
Changes in cytosolic calcium concentration were detected with the fluorescent dye, Indo-1 AM (final concentration 6 μM) as previously described. ^17
Plasma membrane hyperpolarization can lead to calcium influx^23. Therefore, the effects of IVM on calcium influx in leukemia cells was tested. OCI-AML2 cells were treated with IVM and the concentration of intracellular calcium was measured by staining cells with the ratiometric dye, Indo-1 AM.

In series [5] the test system is STAT1 and target genes IFIT3, OAS1 and TRIM22 in OCI-AML2 cells. Briefly: Gene expression by Q-RT-PCR, OCI-AML2. It is filed as cell-based, human. Conditions: after ivermectin treatment, Q-RT-PCR. The procedure:
Leukemia cells were treated with buffer control or ivermectin (3 μM) for 30 and 40 hours. After treatment, cells were harvested, total RNA was isolated. Total RNA (10 μg) was used for cRNA amplification using the Invitrogen SuperScript kit (Life Technologies, Inc., Burlington, ON, Canada). Amplification and biotin labeling of antisense cRNA was performed using the Enzo® BioArray™ High Yield™ RNA transcript labeling kit (Enzo Diagnostics, Farmingdale, N.Y., USA), according to the manufacturer's instructions. RNA was then hybridized to Affymetrix HG U133 Plus 2.0 gene expression oligonucleotide arrays (Affymetrix, Santa Clara, Calif., USA). Microarray slides were scanned using the GeneArray 2500 scanner (Agilent Technologies). Microarray data were analyzed using GeneSpring GX v10.0 (Agilent), and lists of genes deregulated>2-fold after 30 and 40 hr ivermectin treatment were derived. Pathways and gene ontology analyses were carried out using Ingenuity Pathways Analysis (www.ingenuity.com); and the Database for Annotation, Visualization and Integrated Discovery (DAVID; http://david.abcc.ncifcrf.gov). […]
as §2

Series [6] has as its system OCI-AML2, HL60, and KG1a leukemia cell lines. Briefly: Chemical screen for cytotoxic compounds, MTS assay. To be noted: 72 hours, all cell lines in the screen, read-out: EC50, reduced cell viability. The format is cell-based, human. How it is done: HL60, KG1a, and OCI-AML2 leukemia cells were seeded into 96-well polystyrene tissue culture plates (Nunc). After seeding, cells were treated with aliquots of the chemical library (=100) at increasing concentrations (3 to 50 μM) with a final DMSO concentration of 0.5%. Seventy two hours after incubation, cell growth and viability was measured by the MTS assay. Liquid handling was performed by a Biomek FX Laboratory Automated Workstation (Beckman Coulter Fullerton, Calif.).
as §1
A small chemical library (n=100) focused on anti-microbials and metabolic regulators with wide therapeutic windows and well understood pharmacokinetics was compiled. […] Seventy two hours after incubation, cell growth and viability was measured by the MTS assay. […]

A word on the EC50: it is the concentration at which the effect is half-maximal.

Take ivermectin: the “induction of cell death” value in series [1] was “did not induce cell death”. For the same substance, the LD50 entry with monkeys is listed as “above 24 mg/kg”. Besides, the half-maximal effective concentration (EC50) in series [2] was about 5 µM; in series [6], under 10 µM. Also, in series [3], the STAT1 expression result was “did not show changes in STAT1 expression”. In series [4], the plasma membrane potential result is “did not show changes in their plasma membrane potential”. The intracellular calcium entry in the series with OCI-AML2 cells is “increased intracellular calcium”. The “expression of STAT1 and target genes” value in series [5] is “upregulation of STAT1 and target genes IFIT3, OAS1 and TRIM22”.
